Counter-ions that a name gives are not always drawn.
The compounds below were run against T1, human IDO1 (Homo sapiens, UniProt P14902) (assay: IDO inhibition assay in HEK293 cells stably expressing human IDO1 (kynurenine production, Ehrlich reagent, absorbance 490 nm)). Settings: 20 hours incubation with compound, 500 nM reference standard = 100% inhibition, read-out: IDO1 HEK Human IC50.
T1 construct: expressed in transfected cells
T1 sequence (P14902 whole entry): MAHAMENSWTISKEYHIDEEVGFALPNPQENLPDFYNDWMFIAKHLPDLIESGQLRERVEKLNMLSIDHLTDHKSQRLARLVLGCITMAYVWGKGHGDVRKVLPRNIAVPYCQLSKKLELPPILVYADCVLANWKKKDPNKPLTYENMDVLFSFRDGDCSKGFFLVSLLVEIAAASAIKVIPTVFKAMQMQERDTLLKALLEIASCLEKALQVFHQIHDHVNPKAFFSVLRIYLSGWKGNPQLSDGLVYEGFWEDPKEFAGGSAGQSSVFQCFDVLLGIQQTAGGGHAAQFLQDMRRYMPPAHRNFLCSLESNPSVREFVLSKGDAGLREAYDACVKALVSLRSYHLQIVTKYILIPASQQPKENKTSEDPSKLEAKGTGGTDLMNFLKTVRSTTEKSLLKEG
Assay type: cell-based
How it was run: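 Kynurenine output of stably IDO1-transfected HEK293 cells was measured by absorbance at 490 nm after mixing supernatant with 0.2% Ehrlich reagent, following TCA stop (0.2% final, 50° C., 30 min). Cells were incubated 20 hours with compound. Inhibition was scaled between DMSO and 500 nM reference standard.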
`CC(C)CN(Cc1ccccc1)c1cc(NC(=O)Cc2ccc(F)cc2)cc(-c2ccccc2-c2nnn[nH]2)n1` [Example 80, N-(2-(2-(1H-tetrazol-5-yl)phenyl)-6-(benzyl(isobutyl)amino)pyridin-4-yl)-2-(4-fluorophenyl)acetamide, TFA] showed an IC50 of 350 nM. In the case of `CCCN(Cc1ccccc1)c1cc(NC(=O)Cc2cncc(Br)c2)cc(-c2ccccc2-c2nn[nH]n2)n1` [Example 199, N-(2-(2-(2H-tetrazol-5-yl)phenyl)-6-(benzyl(propyl)amino)-yl)-2-(5-bromopyridin-3-yl)acetamide], the IC50 is reported as 239 nM. `CCN(Cc1ccccc1)c1cc(NC(=O)Nc2ccc(Cl)cc2Cl)cc(-c2ccccc2-c2nnn[nH]2)n1` [Example 281] gave an IC50 of 13.7 nM. With `CCCN(Cc1ccccc1)c1cc(NC(=O)Cc2ccc(C)cc2)cc(-c2ccccc2C(=O)O)n1` [Example 17, 2-(6-(benzyl(propyl)amino)-4-(2-(p-tolyl)acetamido)pyridin-2-yl)benzoic acid] the IC50 was 161 nM. For “6-(2-(1H-tetrazol-5-yl)phenyl)-N2- benzyl-N4-(2-fluoropyridin-3-yl)- N2-isobutylpyridine-2,4-diamine, TFA [Example 54]”, the IC50 was 24.8 nM. In the case of `CC(C)CN(Cc1ccccc1)c1cc(Nc2ccccc2C#N)cc(-c2ccccc2-c2nnn[nH]2)n1` [Example 194, 2-((2-(2-(1H-tetrazol-5-yl)phenyl)-6-(benzyl(isobutyl)amino)pyridin-4-yl)amino)benzonitrile], the IC50 is reported as 230 nM. With `CC(C)CN(Cc1ccccc1)c1cc(Nc2ncc(F)cn2)cc(-c2ccccc2-c2nnn[nH]2)n1` [Example 55, 6-(2-(1H-tetrazol-5-yl)phenyl)-N2-benzyl-N4-(5-fluoropyrimidin-2-yl)-N2-isobutylpyridine-2,4-diamine, 1.5 TFA] the IC50 was 11.5 nM. With `CCN(CCC(F)(F)F)c1nc(NC(=O)Cc2ccc(C)cc2)cc(-c2ccccc2-c2nnn[nH]2)n1` [Example 100, N-(6-(2-(1H-tetrazol-5-yl)phenyl)-2-(ethyl(3,3,3-trifluoropropyl)amino)pyrimidin-4-yl)-2-(p-tolyl)acetamide] the IC50 was 127 nM. Work on `Cc1ccc(NC(=O)Nc2cc(-c3ccccc3C(=O)O)nc(N(CC(C)C)CC(C)C)c2)cc1` [Example 254, 2-(6-(diisobutylamino)-4-(3-(p-tolyl)ureido)pyridin-2-yl)benzoic acid] yielded an IC50 of 1080 nM. With `CCC(CC(=O)O)c1cc(Nc2ccc(Cl)cc2)cc(N(Cc2ccc(F)cc2)C(C)C)n1` (racemic) [Example 246, 3-(4-((4-chlorophenyl)amino)-6-((4-fluorobenzyl)(isopropyl)amino)pyridin-2-yl)pentanoic acid] the IC50 was 4.7 nM. `CC(C)CN(Cc1ccc(F)cc1)c1cc(Nc2ccn3nccc3n2)cc(-c2ccccc2-c2nnn[nH]2)n1` [Example 42, 6-(2-(1H-tetrazol-5-yl)phenyl)-N2-(4-fluorobenzyl)-N2-isobutyl-N4-(pyrazolo[1,5-a]pyrimidin-5-yl)pyridine-2,4-diamine, TFA] gave an IC50 of 120 nM. `CCCN(Cc1ccccc1)c1cc(NC(=O)Nc2ccccc2F)cc(-c2cc(F)ccc2C(=O)O)n1` [Example 261, 2-(6-(benzyl(propyl)amino)-4-(3-(2-fluorophenyl)ureido)pyridin-2-yl)-4-fluorobenzoic acid] gave an IC50 of 1640 nM. `CCCN(Cc1ccccc1)c1cc(NC(=O)Nc2ccccc2F)cc(-c2cc(C)ccc2-c2nnn[nH]2)n1` [Example 88, 1-(2-(benzyl(propyl)amino)-6-(5-methyl-2-(1H-tetrazol-5-yl)phenyl)pyridin-4-yl)-3-(2-fluorophenyl)urea, TFA] showed an IC50 of 109 nM. Work on `CCCN(Cc1ccccc1)c1cc(NC(=O)Nc2ccc(C)cc2)cc(-c2cc(C)ccc2-c2noc(=O)[nH]2)n1` [Example 26, 1-(2-(benzyl(propyl)amino)-6-(5-methyl-2-(5-oxo-4,5-dihydro-1,2,4-oxadiazol-3-yl)phenyl)pyridin-4-yl)-3-(p-tolyl)urea] yielded an IC50 of 11.8 nM. `CCCN(CC1CC1)c1nc(NC(=O)Nc2ccc(F)cc2)cc(-c2ccccc2-c2nnn[nH]2)n1` [Example 65, 1-(6-(2-(1H-tetrazol-5-yl)phenyl)-2-((cyclopropylmethyl)(propyl)amino)pyrimidin-4-yl)-3-(4-fluorophenyl)urea, TFA] was tested, and the IC50 was 4530 nM. For `CC(C)CN(Cc1ccc(F)cc1)c1cc(Nc2ncc(F)cn2)cc(-c2ccccc2-c2nnn[nH]2)n1` [Example 44, 6-(2-(1H-tetrazol-5-yl)phenyl)-N2-(4-fluorobenzyl)-N4-(5-fluoropyrimidin-2-yl)-N2-isobutylpyridine-2,4-diamine, TFA], the IC50 was 35.7 nM. For `Cc1ccc(CC(=O)Nc2cc(-c3ccccc3-c3nnn[nH]3)nc(N(Cc3ccccc3)CC3CC3)n2)cc1` [Example 22, N-(6-(2-(1H-tetrazol-5-yl)phenyl)-2-(benzyl(cyclopropylmethyl)amino)pyrimidin-4-yl)-2-(p-tolyl)acetamide], the IC50 was 32.4 nM. Compound `Cc1ccc(Nc2cc(-c3ccccc3-c3nnn[nH]3)nc(N(Cc3ccccc3)CC(C)C)c2)c(C#N)c1` [Example 187, 2-((2-(2-(1H-tetrazol-5-yl)phenyl)-6-(benzyl(isobutyl)amino)pyridin-4-yl)amino)-5-methylbenzonitrile] has an IC50 of 101 nM. With `Cc1ccc(NC(=O)Nc2cc(-c3ccccc3-c3nnn[nH]3)nc(N3C[C@@H]4C[C@H]3CN4Cc3ccccc3)n2)cc1` [Example 98, 1-(6-(2-(1H-tetrazol-5-yl)phenyl)-2-((1 S,4S)-5-benzyl-2,5-diazabicyclo [2.2.1]heptan-2-yl)pyrimidin-4-yl)-3-(p-tolyl)urea] the IC50 was 846 nM. Compound `CCC(CC(=O)O)c1cc(Nc2ccc3nc(C)sc3c2)cc(N(Cc2ccc(F)cc2)CC(C)C)n1` (single isomer, unassigned) [Example 249, 3-(6-((4-fluorobenzyl)(isobutyl)amino)-4-((2-methylbenzo [d]thiazol-6-yl)amino)pyridin-2-yl)pentanoic acid] has an IC50 of 934 nM. In the case of `CCCN(Cc1ccccc1)c1cc(NC(=O)C2(c3cccc(F)c3)CC2)cc(-c2ccccc2-c2nn[nH]n2)n1` [Example 224, N-(2-(2-(2H-tetrazol-5-yl)phenyl)-6-(benzyl(propyl)amino)pyridin-4-yl)-1-(3-fluorophenyl)cyclopropanecarboxamide], the IC50 is reported as 3000 nM. `CC(C)CN(Cc1ccccc1)c1cc(Nc2ccc(Cl)cc2)cc(-c2ccccc2-c2nnn[nH]2)n1` [Example 171, 6-(2-(1H-tetrazol-5-yl)phenyl)-N2-benzyl-N4-(4-chlorophenyl)-N2-isobutylpyridine-2,4-diamine] showed an IC50 of 1.1 nM. Work on `CCCN(CC1CC1)c1nc(NC(=O)Cc2ccc(C)cc2)cc(-c2ccccc2-c2nnn[nH]2)n1` [Example 64, N-(6-(2-(1H-tetrazol-5-yl)phenyl)-2-((cyclopropylmethyl)(propyl)amino)pyrimidin-4-yl)-2-(p-tolyl)acetamide, TFA] yielded an IC50 of 161 nM. For `CC(C)CN(Cc1ccccc1)c1cc(Nc2ccnc3ccnn23)cc(-c2ccccc2-c2nnn[nH]2)n1` [Example 155, 6-(2-(1H-tetrazol-5-yl)phenyl)-N2-benzyl-N2-isobutyl-N4-(pyrazolo[1,5-a]pyrimidin-7-yl)pyridine-2,4-diamine], the IC50 was 131 nM. `CC(C)CN(Cc1ccccc1)c1cc(Nc2ccc(F)c(F)c2)cc(-c2ccccc2-c2nnn[nH]2)n1` [Example 181, 6-(2-(1H-tetrazol-5-yl)phenyl)-N2-benzyl-N4-(3,4-difluorophenyl)-N2-isobutylpyridine-2,4-diamine] was tested, and the IC50 was 4.3 nM. For `CC(C)CN(Cc1ccccc1)c1cc(Nc2ccc(C(=O)O)cc2F)cc(-c2ccccc2-c2nnn[nH]2)n1` [Example 166, 4-((2-(2-(1H-tetrazol-5-yl)phenyl)-6-(benzyl(isobutyl)amino)pyridin-4-yl)amino)-3-fluorobenzoic acid], the IC50 was 4050 nM. Compound `CCCc1cnc(Nc2cc(-c3ccccc3-c3nnn[nH]3)nc(N(Cc3ccccc3)CC(C)C)c2)nc1` [Example 149, 6-(2-(1H-tetrazol-5-yl)phenyl)-N2-benzyl-N2-isobutyl-N4-(5-propylpyrimidin-2-yl)pyridine-2,4-diamine] has an IC50 of 17.6 nM. `CCCN(Cc1ccccc1)c1cc(Nc2nnc(C)s2)cc(-c2ccccc2-c2nnn[nH]2)n1` [Example 60, 6-(2-(1H-tetrazol-5-yl)phenyl)-N2-benzyl-N4-(5-methyl-1,3,4-thiadiazol-2-yl)-N2-propylpyridine-2,4-diamine] was tested, and the IC50 was 831 nM. For `Cc1ccc(Nc2cc(-c3ccccc3-c3nnn[nH]3)nc(N(Cc3ccc(F)cc3)CC(C)C)c2)nn1` [Example 41, 6-(2-(1H-tetrazol-5-yl)phenyl)-N2-(4-fluorobenzyl)-N2-isobutyl-N4-(6-methylpyridazin-3-yl)pyridine-2,4-diamine, TFA], the IC50 was 563 nM. `CC(C)CN(Cc1ccccc1)c1cc(NC(=O)Nc2ccc(OC(F)(F)F)cc2)cc(-c2ccccc2-c2nnn[nH]2)n1` [Example 239, 1-(2-(2-(1H-tetrazol-5-yl)phenyl)-6-(benzyl(isobutyl)amino)pyridin-4-yl)-3-(4-(trifluoromethoxy)phenyl)urea] gave an IC50 of 566 nM. With `CC(C)CN(Cc1ccccc1)c1cc(Nc2ccccc2Cl)cc(-c2ccccc2-c2nnn[nH]2)n1` [Example 177, 6-(2-(1H-tetrazol-5-yl)phenyl)-N2-benzyl-N4-(2-chlorophenyl)-N2-isobutylpyridine-2,4-diamine] the IC50 was 17.5 nM. Compound `CCCN(Cc1ccccc1)c1cc(NC(=O)Nc2ccc3c(c2)OCO3)cc(-c2ccccc2-c2nnn[nH]2)n1` [Example 288, 1-(2-(2-(1H-Tetrazol-5-yl)phenyl)-6-(benzyl(propyl)amino)pyridin-4-yl)-3-(benzo[d][1,3]dioxol-5-yl)urea] has an IC50 of 155 nM. `Cc1cc(F)cnc1Nc1cc(-c2ccccc2-c2nnn[nH]2)nc(N(Cc2ccccc2)CC(C)C)c1` [Example 183, 6-(2-(1H-tetrazol-5-yl)phenyl)-N2-benzyl-N4-(5-fluoro-3-methylpyridin-2-yl)-N2-isobutylpyridine-2,4-diamine] showed an IC50 of 129 nM.

Source: US12059420B2 (BRISTOL-MYERS SQUIBB COMPANY, priority 2018, dated 2024)
